According to US20220022395A1, “JASMONIC ACID ENDOGENY PROMOTING AGENT, AND METHOD FOR PROMOTING JASMONIC ACID ENDOGENY” (Tokyo University of Science Foundation, priority 2018, published 2022):

How the values were obtained:
[1] = system: PDF1.2 gene; experiment: Measurement of expression level of PDF1.2 gene (2), real-time PCR; format: in vivo, Arabidopsis thaliana; conditions: 50 μM, 48 h; FIG. 3
Method: (§1) Arabidopsis thaliana (Col-0) seeds were sown on a transparent 96-well plate, and soaked in a 1/2 MS medium (150 μL). The seeds were left for 2-3 days in a cool and dark place, and then left to grow under long-day treatment conditions for 10 days. Thereafter, the medium was replaced with a 1/2 MS medium (100 μL) containing compound E1 (50 μM), compound E4 (50 μM), or compound E5 (50 μM), and comparative compounds C1 and C2, vacuum treatment was applied for 10 min, and the seeds were left in the light for 48 h. Eight individual plantlets and 2 beads for crushing were placed in a tube, and immediately frozen with liquid nitrogen and stored at −80° C. In addition, for a negative control, DMSO was added instead of each of compounds E1, E4, and E5. Then, similarly to Test Example 2, RNA was extracted from the frozen sample, and the expression level of the PDF1.2 gene was quantitatively determined by reverse transcription real-time PCR.

[2] = system: PDF1.2 gene; experiment: Measurement of expression level of PDF1.2 gene (3), real-time PCR; format: in vivo, Arabidopsis thaliana; conditions: 50 μM, 48 h; FIG. 4
Method: as §1, with “3-7” for “2-3”, “μM),” for “μM), compound E4 (50 μM),”, “E6” for “E5”, “E1” for “E1, E4,”, “E6.” for “E5.”

[3] = system: Arabidopsis thaliana (Col-0); experiment: Measurement of amount of endogenous jasmonic acid production (LC-MS/MS); format: in vivo; conditions: 50 μM, 24 h in the light, vs DMSO negative control; FIG. 1 (*p<0.05; **p<0.01)
Method: Arabidopsis thaliana (Col-0) seeds were sown on a transparent 96-well plate, and soaked in a 1/2 MS medium (150 μL). The seeds were left for 2-3 days in a cool and dark place, and then left to grow under long-day treatment conditions for 9-10 days. Thereafter, the medium was replaced with a 1/2 MS medium (100 μL) containing each (50 μM) of compounds E1, E2, and E3, and comparative compounds C1 and C2, vacuum treatment was applied for 10 min, and the seeds were left in the light for 24 h. About 20 to 60 mg of the plantlets (about 3 individuals) and 2 beads for crushing were placed in a tube, and immediately frozen with liquid nitrogen and stored at −80° C. In addition, for a negative control, DMSO was added instead of each of compounds E1, E2, and E3, and comparative compounds C1 and C2.
The frozen sample was crushed using a bead-type homogenizer (Bead Smash 12; WakenBtech Co., Ltd.) under conditions of 3,000 rpm for 60 sec, and then 1 mL of an aqueous solution of 70% methanol plus 1% acetic acid and 10 ng of d2-JA (internal standard) were added. The mixture was mixed thoroughly by vortexing. This solution was centrifuged at 10,000 rpm for 5 min and the supernatant was collected. The same process was repeated two more times without the addition of the internal standard, and a total of 3 mL of an extract was collected.
The solutions were then applied to a Sep-Pak (registered trademark) Vac 3cc (500 mg) C18 Cartridge (Waters) in the following order of 1. to 6.
1. acetonitrile (one column volume, about 3 mL) 2. 100% methanol (one column volume) 3. distilled water (one column volume) 4. aqueous solution of 70% methanol+1% acetic acid (two column volumes) 5. sample supernatant (total amount) 6. aqueous solution of 70% methanol+1% acetic acid (one column volume) […]
Then, the amount of endogenous jasmonic acid (JA) production was determined by LC-MS/MS. […]

[4] = system: MRC-5 cells; experiment: Study on cytotoxicity, WST-8 method; format: cell-based, human; conditions: 50 μM, cultured 2 days, FIG. 5
Method: Normal fibroblasts MRC-5 from human fetal lung were seeded in a 96-well plate at a cell density of 5,000 cells/well, and cultured for 1 day under conditions of 37° C. and 5% CO2. After the culturing, compound E1 was added to the medium at varying concentrations, and the cells were cultured for another 2 days. Then, the number of viable cells was determined using the WST-8 method, and the viability of the MRC-5 cells was calculated. In addition, for a control, SN-38, an active metabolite of the anticancer drug irinotecan, was added instead of compound E1.

[5] = system: PDF1.2 gene; experiment: Measurement of expression level of PDF1.2 gene (1), real-time PCR; format: in vivo, Arabidopsis thaliana; conditions: 24 h, relative expression (ΔΔCt, EF1-α reference)
Method: Arabidopsis thaliana (Col-0) seeds were sown on a transparent 96-well plate, and soaked in a 1/2 MS medium (150 μL). The seeds were left for 2-3 days in a cool and dark place, and then left to grow under long-day treatment conditions for 9-10 days. Thereafter, the medium was replaced with a 1/2 MS medium (100 μL) containing compound E1 (25 μM) or compound E2 (50 μM), vacuum treatment was applied for 10 min, and the seeds were left in the light for 24 h. About 20 to 60 mg of the plantlets (about 3 individuals) and 2 beads for crushing were placed in a tube, and immediately frozen with liquid nitrogen and stored at −80° C. In addition, for a negative control, DMSO was added instead of each of compounds E1 and E2. […] The concentration of the total RNA obtained was measured, and the total RNA was mixed with RNAse-free H2O to 1/12 μg/μL (6 μL H2O for 0.5 μg of the total RNA), and the mixture was placed in a PCR tube, incubated at 65° C. for 5 min, and then quenched on ice. […] Then, CFX Connect Real-Time PCR Detection System (Bio-Rad) was used to quantitatively determine the expression level of PDF1.2 gene. […] For quantification, the ΔΔCt method was used, and this value was expressed as the relative expression level. […]

Row | Structure (SMILES) | expression level of PDF1.2 gene [1] | expression level of PDF1.2 gene [2] | amount of endogenous jasmonic acid production [3] | also measured
1 | COc1ccc(Oc2cccc(Br)c2C#N)cc1 [compound E5] | markedly enhanced |  |  | 
2 | CC(C)Oc1ccc(Oc2cccc(F)c2C#N)cc1 [compound E6] |  | markedly enhanced |  | 
3 | N#Cc1c(F)cccc1Oc1ccccc1 [compound E3] |  |  | significantly increased | 
4 | COc1ccc(Oc2cccc(Cl)c2C#N)cc1 [compound E4] | markedly enhanced |  |  | 
5 | COc1ccc(Oc2cccc(F)c2C#N)cc1 [compound E1] | markedly enhanced | markedly enhanced | significantly increased | viability of the MRC-5 cells [4]: exceeds 60%; expression level of PDF1.2 gene ([5]; 25 μM, FIG. 2A): markedly enhanced
6 | N#Cc1c(Cl)cccc1Oc1ccc(-c2nnco2)cc1 [compound E2] |  |  | significantly increased | expression level of PDF1.2 gene ([5]; 50 μM, FIG. 2B): markedly enhanced
